Data published in patent publication US12691100B2, “NMT inhibitor treatment of a senescence-associated disease or disorder of the liver” (Imperial College Innovations Limited, priority 2020, dated 2026).

Key:
IMR90 cells = assay: Senolytic survival assay, doxorubicin-induced senescence; type: cell-based, human; conditions: doxorubicin or DMSO; compounds added 7 days after induction; read 7 days later; FIGS. 3A-B
Method: IMR90 cells were used to generate inducible ER:RAS (hereinafter iRAS) cells to model Oncogene induced senescence (OIS), through retroviral infection of pLNC-ER:RAS-neo into IMR90 cells followed by selection with Neomycin. IMR90 cells containing the pLNC-ER:RAS plasmid backbone pLXSN were infected in parallel to assess leakiness in the pLNC-ER:RAS system. Treatment with 100 nM 4OHT (Sigma, in DMSO) was used to induce IMR90 ER:RAS cells to undergo oncogene induced senescence (OIS). […]
High-throughput microscopy survival assay—To assess senolytic effect of drugs, cells were cultured for 7 days, culture media was changed to DM0.5 media and drugs in DMSO were added (<5% v/v final concentration), drugs were replenished after 3 days if assay length was longer than 72 h. […] Image acquisition of DAPI stained cells was performed on an automated InCell Analyser 2000 (GE Healthcare®) and high-content analysis on the InCell Investigator 2.7.3 software used to quantify number of DAPI positive cells per well. […] Survival was measured as cell counts relative to DMSO treated quiescent or senescent cells.
IMR90 cells were treated with doxorubicin (to induce senescence), or DMSO (as a control). […] Senolytic activity of inhibitors was determined 7 days after adding the drugs with replenishment after 3 days, cells were fixed, imaged and cells numbers were quantified using high throughput microscopy. […]

senescent cells = assay: Senolytic activity in old mice (senescent-associated β-galactosidase staining); type: in vivo, C57BL/6J female mice; conditions: ~26 month female mice, 10 mg/kg i.p., versus vehicle
Method: Lung and liver samples frozen in optimal cutting temperature (OCT) were cryosectioned (15 μM) and frozen sections fixed in ice-cold 0.5% Glutaraldehyde (w/v, PBS) for 15 min and washed 1 mM MgCl2/PBS (pH 6.0) for 5 min. β-galactosidase activity was stained for with X-gal staining solution (1 mg ml^−1 X-gal, ThermoFisher Scientific, 5 mM K3(Fe(CN)6), 5 mM K4(Fe(CN)6)) for 18 h at 37° C. Slides were dehydrated and coverslips mounted prior to being imaged using 20× brightfield objective on Zeiss AxioScan Z.1 slide scanner. ImageJ was used to quantify staining by measuring the β-gal stained area as a percentage of the total tissue area excluding luminal spaces.

[1] = Blood markers (Vetscan) in a separate cohort of old mice; type: in vivo, female C57/BL6 mice; conditions: ~19 mo females, before 4th round, Compound 2 10 mg/kg, Compound 3 25 mg/kg, versus vehicle
Method: Blood was collected prior to each round of injection for physiological assessments. Mice were allowed to rest 4 weeks prior to being culled and organs collected for freezing in OCT, paraffin embedding and snap-freezing for RNA extraction.
For analysis of immune cell composition in whole blood, tail-vein blood was collected 2 days after last treatment. Whole blood was diluted in saline to a volume of […] and ran on a Sysmex XE2100 automated cell counter. Blood glucose levels were determined by collecting whole-blood from tail vein into heparinised tubes (Abraxis), 120-140 μL of whole-blood to be loaded onto a comprehensive diagnostic profile reagent rotor (Abraxis) and run on a VetScan VS2 Chemistry Analyzer (Abraxis: 500-7123).
Further experiments were performed on a separate cohort of old mice. […] This regimen was repeated 4 more times and blood was collected for Vetscan measurements prior to the 4th round of treatment (FIG. 19). At that stage, ~19 mo females presented elevated levels of ALT, amylase and glucose in blood when compared with young mice (FIG. 20A).

Compound | Survival (cell counts relative to DMSO), senescent versus control cells (IMR90 cells) | Senescent cells in livers (senescent-associated β-galactosidase staining) (senescent cells; FIG. 17B) | Senescent cells in lungs (senescent-associated β-galactosidase staining) (senescent cells; FIG. 17C) | ALT in blood ([1]; FIG. 20A) | Amylase in blood ([1]; FIG. 20B) | Glucose in blood ([1]; FIG. 20C)
Cc1nn(C)c(C)c1CCOc1c(-c2ccc3c(c2)c(CN(C)C)nn3C)ccc(F)c1F [Compound 1, 1-(5-(3,4-difluoro-2-(2-(1,3,5-trimethyl-1H-pyrazol-4-yl)ethoxy)phenyl)-1-methyl-1H-indazol-3-yl)-N,N-dimethylmethanamine] | selectively kill senescent cells induced to senescence by doxorubicin |  |  |  |  | 
Cc1c(NS(=O)(=O)c2c(Cl)cc(-c3ccnc(N4CCNCC4)c3)cc2Cl)c(CC(C)C)nn1C [Compound 2] |  | lower levels of senescent cells | lower levels of senescent cells | lower level | lower level | lower level
